Among the test systems are OVCAR-5 ovarian; T-47D breast; SF-295 CNS; MDA-MB-231 breast; NCI-H226 lung; HS 578T breast; IGROV1 ovarian; NCI-H522 lung; 786-0 renal; SW-620 colon.
Test in all cases: growth of human tumour cells (NCI), 48 h

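How tested: cells in 96-well plates exposed to compound for 48 hours at five concentrations. At the TGI there is no net growth.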

For `CCCCCCCCCCCCCCCCNc1ccn(C2CC(OP(=O)(O)OCC3OC(n4cc(CC)c(=O)[nH]c4=O)CC3O)C(CO)O2)c(=O)n1` (configuration not stated), the TGI in the test on OVCAR-5 ovarian was 62.8 µM; with T-47D breast, > 100 µM; in the test on SF-295 CNS, 34.5 µM; with MDA-MB-231 breast, 68.3 µM; in the test on NCI-H226 lung, > 100 µM; in the test on HS 578T breast, 67.1 µM. In addition, the TGI in the test on IGROV1 ovarian was > 100 µM; in the test on NCI-H522 lung, > 100 µM; in the test on 786-0 renal, > 100 µM; in the test with SW-620 colon, 65.4 µM.
For `COc1ccc(C(C)NNC(=O)c2ccncc2)cc1F` (configuration not stated), the TGI in the test with OVCAR-5 ovarian, in the test on T-47D breast, in the test with SF-295 CNS, with MDA-MB-231 breast, in the test with NCI-H226 lung and in the test on HS 578T breast was > 100 µM each time. The TGI with IGROV1 ovarian, in the test on 786-0 renal and in the test with SW-620 colon was > 100 µM each time.
`N#Cc1c(C#N)c(-c2ccccc2)n(/N=C\c2ccccc2)c1N`: the TGI with OVCAR-5 ovarian was > 100 µM; in the test with T-47D breast, 29.1 µM; in the test with SF-295 CNS it was 65.8 µM; with MDA-MB-231 breast, 65.3 µM; with NCI-H226 lung, 68.7 µM; with HS 578T breast it was 61.3 µM. For the same compound, the TGI in the test on IGROV1 ovarian was 84.7 µM; with NCI-H522 lung, 49.5 µM; in the test on 786-0 renal it was > 100 µM; in the test on SW-620 colon, > 100 µM.
For the compound `CCOC(=O)c1cn(C)nc1N/C(C)=C\C(=O)c1ccccc1`, the TGI with OVCAR-5 ovarian, in the test on T-47D breast, with SF-295 CNS, in the test with MDA-MB-231 breast, in the test on NCI-H226 lung and in the test with HS 578T breast was > 100 µM in each case. In addition, the TGI with IGROV1 ovarian, in the test on NCI-H522 lung, in the test on 786-0 renal and with SW-620 colon was > 100 µM each time.
Turning to `COC(=O)C1[C@H](C(=O)OC)C1(Br)CBr` (some centres not stated), the TGI in the test on OVCAR-5 ovarian, in the test on T-47D breast, with SF-295 CNS, in the test on MDA-MB-231 breast, with NCI-H226 lung and in the test on HS 578T breast was > 100 µM throughout. In addition, the TGI in the test on IGROV1 ovarian, in the test on NCI-H522 lung, in the test on 786-0 renal and in the test with SW-620 colon was > 100 µM throughout.
On to `C=C1C(=O)O[C@H]2[C@H]([C@H](C)CCCC(C)=O)O[C@H]([C@@]3(C)CCC(=O)O3)C[C@@H]12`, for which the TGI is > 100 µM with OVCAR-5 ovarian; > 100 µM in the test with T-47D breast; > 100 µM in the test on SF-295 CNS; > 100 µM in the test with MDA-MB-231 breast; 80.5 µM with NCI-H226 lung; > 100 µM with HS 578T breast. The TGI with IGROV1 ovarian is > 100 µM; with NCI-H522 lung, 64.8 µM; in the test with 786-0 renal, > 100 µM; in the test with SW-620 colon, > 100 µM.
On to `COc1ccc(NC(=S)NNC(=O)c2cc(-c3ccccc3)nc3ccccc23)cc1`, for which the TGI is 58.8 µM in the test on OVCAR-5 ovarian; 59.7 µM with T-47D breast; 16.4 µM in the test on SF-295 CNS; 51.2 µM with MDA-MB-231 breast; 42.8 µM in the test with NCI-H226 lung; 75.5 µM in the test with HS 578T breast. The TGI is > 100 µM with IGROV1 ovarian, 50.7 µM in the test with NCI-H522 lung, 40.5 µM in the test on 786-0 renal and 41.6 µM with SW-620 colon.
Turning to `COc1cccc(C2CC(=O)c3cccn32)c1` (configuration not stated), the TGI in the test on OVCAR-5 ovarian, in the test on T-47D breast, with SF-295 CNS, in the test on MDA-MB-231 breast, in the test with NCI-H226 lung and in the test with HS 578T breast was > 100 µM throughout. Moreover, the TGI in the test with IGROV1 ovarian, in the test with NCI-H522 lung, with 786-0 renal and with SW-620 colon was > 100 µM each time.
Turning to `CCCC(=O)OC1CC(n2cc(F)c(=O)[nH]c2=O)OC1CO` (configuration not stated), the TGI with OVCAR-5 ovarian, in the test on T-47D breast, in the test on SF-295 CNS, in the test with MDA-MB-231 breast, in the test on NCI-H226 lung and with HS 578T breast was > 10 µM in each case. In addition, the TGI with IGROV1 ovarian, in the test on NCI-H522 lung, with 786-0 renal and in the test on SW-620 colon was > 10 µM each time.
As to `CN(C)c1ccc(/C=C2\C[C@H]3[C@@H]4CCc5cc(O)ccc5[C@H]4CC[C@]3(C)C2=O)cc1`, the TGI was > 100 µM in the test on OVCAR-5 ovarian; > 100 µM with T-47D breast; > 100 µM in the test on SF-295 CNS; 69 µM in the test with MDA-MB-231 breast; 67.3 µM with NCI-H226 lung; 30.5 µM in the test with HS 578T breast. The TGI in the test with IGROV1 ovarian and in the test with SW-620 colon was > 100 µM throughout.
With `COc1cc(-c2[o+]c3cc(O)cc(OC4OC(CO)C(O)C(O)C4O)c3cc2OC2OC(CO)C(O)C(O)C2O)cc(OC)c1O` (configuration not stated), the TGI in the test on OVCAR-5 ovarian, in the test with T-47D breast, with SF-295 CNS, with MDA-MB-231 breast, in the test with NCI-H226 lung and with HS 578T breast was > 100 µM each time. The TGI with IGROV1 ovarian, in the test on NCI-H522 lung, in the test with 786-0 renal and in the test on SW-620 colon was > 100 µM throughout.
Consider `Cc1nnc2sc(-c3ccc([N+](=O)[O-])o3)nn12`, for which the TGI in the test with OVCAR-5 ovarian was 36.7 µM; with T-47D breast it was 62.7 µM; in the test with SF-295 CNS it was 31 µM; in the test on MDA-MB-231 breast, 29.2 µM; in the test with NCI-H226 lung it was 34.5 µM; in the test on HS 578T breast, > 100 µM. Besides, the TGI came out at 29.1 µM in the test with IGROV1 ovarian, 14.3 µM with NCI-H522 lung, 22 µM with 786-0 renal and 23.2 µM in the test with SW-620 colon.
`O=S(=O)(O)c1ccc(Nc2ccnc3cc(Cl)ccc23)cc1`: the TGI with OVCAR-5 ovarian, in the test with T-47D breast, in the test on SF-295 CNS, in the test with MDA-MB-231 breast, in the test with NCI-H226 lung and with HS 578T breast was > 100 µM throughout. Also, the TGI with IGROV1 ovarian, in the test with NCI-H522 lung, in the test with 786-0 renal and in the test with SW-620 colon was > 100 µM each time.

The record behind these values is PubChem BioAssay (NCI).
